Source: paper PMC11045757, “Group 3 medulloblastoma transcriptional networks collapse under domain specific EP300/CBP inhibition” (Nature Communications, 2024)
Where “and” joins values, the source holds several entries; their conditions need not be identical. Equal values may be shown once. Read-outs that look alike come from different tables or passages of the source. Values belong to the compound of their own block, whether it stands above or below them.

Columns and labels:
BRDT(2) = biological target: T1, BRDT(2) (Homo sapiens, UniProt Q58F21); experiment: BromoScan profiling (DiscoverX); type: binding; conditions: read-out: Percent Control BRDT(2)
T1 construct: BRDT(2); purchased Eurofins DiscoverX (BROMOscan)

BRD9 = biological target: T2, BRD9 (Homo sapiens, UniProt Q9H8M2); experiment: BromoScan profiling (DiscoverX); type: binding; conditions: read-out: Percent Control BRD9
T2 construct: purchased Eurofins DiscoverX (BROMOscan)
T2 sequence (Q9H8M2 whole entry): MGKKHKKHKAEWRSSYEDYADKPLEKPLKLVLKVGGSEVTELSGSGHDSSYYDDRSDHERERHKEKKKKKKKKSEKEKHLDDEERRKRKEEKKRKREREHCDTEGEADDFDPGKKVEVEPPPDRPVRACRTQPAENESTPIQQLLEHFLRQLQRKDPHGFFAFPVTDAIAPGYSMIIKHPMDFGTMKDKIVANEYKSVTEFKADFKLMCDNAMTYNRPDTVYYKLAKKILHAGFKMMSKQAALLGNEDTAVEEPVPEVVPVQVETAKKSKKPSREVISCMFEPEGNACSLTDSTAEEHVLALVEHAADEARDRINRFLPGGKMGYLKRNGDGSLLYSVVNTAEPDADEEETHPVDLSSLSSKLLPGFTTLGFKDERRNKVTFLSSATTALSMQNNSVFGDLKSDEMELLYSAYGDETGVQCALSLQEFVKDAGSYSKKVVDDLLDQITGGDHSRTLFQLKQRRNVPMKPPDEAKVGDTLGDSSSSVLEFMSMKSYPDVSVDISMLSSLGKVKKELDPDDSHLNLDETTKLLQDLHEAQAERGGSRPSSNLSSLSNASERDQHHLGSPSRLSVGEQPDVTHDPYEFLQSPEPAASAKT

[1] = system: HDMB03 (HDMBO3) group 3 medulloblastoma cells; experiment: CellTiter-Glo dose-response growth assay; type: cell-based; conditions: for normalized growth (fraction of control), replicate values: HDMBO3, log10[compound]; for IC50: Homo sapiens
How it was run: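 Growth of the G3MB line HDMB03 was assessed across compound concentrations. Cells went into 384-well plates at 500 cells per well in growth medium and were exposed to compound for the indicated time. A CellTiter-Glo luminescence assay, run per manufacturer instructions and read on an Envision 2104 instrument, quantified remaining cell growth.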

[2] = system: MB002 group 3 medulloblastoma cells; experiment: CellTiter-Glo dose-response growth assay; type: cell-based; conditions: for IC50: MB002, 72 h, day 3, read-out: d3 IC50 MB002; for normalized growth (fraction of control), replicate values: MB002, log10[compound]
How it was run: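 This is a dose-response growth assay in MB002 cells, a group 3 medulloblastoma line. Cells were plated at 500 cells/well in 384-well plates containing growth media and treated with compound over a concentration series. After the noted incubation period, CellTiter-Glo reagent was applied per the manufacturer's protocol and luminescence was read on an Envision 2104 microplate reader.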

PBRM1(5) = biological target: T3, PBRM1(5) (Homo sapiens, UniProt Q86U86); experiment: BromoScan profiling (DiscoverX); type: binding; conditions: read-out: Percent Control PBRM1(5)
T3 construct: PBRM1(5); purchased Eurofins DiscoverX (BROMOscan)
T3 sequence (Q86U86 645-766 limits assumed): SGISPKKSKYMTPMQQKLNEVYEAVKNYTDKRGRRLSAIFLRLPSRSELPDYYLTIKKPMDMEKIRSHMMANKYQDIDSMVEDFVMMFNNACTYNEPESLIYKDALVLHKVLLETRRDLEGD

BRD3(2) = biological target: T4, BRD3(2) (Homo sapiens, UniProt Q15059); experiment: BromoScan profiling (DiscoverX); type: binding; conditions: read-out: Percent Control BRD3(2)
T4 construct: BRD3(2); purchased Eurofins DiscoverX (BROMOscan)

BRD7 = biological target: T5, BRD7 (Homo sapiens, UniProt Q9NPI1); experiment: BromoScan profiling (DiscoverX); type: binding; conditions: read-out: Percent Control BRD7
T5 construct: purchased Eurofins DiscoverX (BROMOscan)
T5 sequence (Q9NPI1 whole entry): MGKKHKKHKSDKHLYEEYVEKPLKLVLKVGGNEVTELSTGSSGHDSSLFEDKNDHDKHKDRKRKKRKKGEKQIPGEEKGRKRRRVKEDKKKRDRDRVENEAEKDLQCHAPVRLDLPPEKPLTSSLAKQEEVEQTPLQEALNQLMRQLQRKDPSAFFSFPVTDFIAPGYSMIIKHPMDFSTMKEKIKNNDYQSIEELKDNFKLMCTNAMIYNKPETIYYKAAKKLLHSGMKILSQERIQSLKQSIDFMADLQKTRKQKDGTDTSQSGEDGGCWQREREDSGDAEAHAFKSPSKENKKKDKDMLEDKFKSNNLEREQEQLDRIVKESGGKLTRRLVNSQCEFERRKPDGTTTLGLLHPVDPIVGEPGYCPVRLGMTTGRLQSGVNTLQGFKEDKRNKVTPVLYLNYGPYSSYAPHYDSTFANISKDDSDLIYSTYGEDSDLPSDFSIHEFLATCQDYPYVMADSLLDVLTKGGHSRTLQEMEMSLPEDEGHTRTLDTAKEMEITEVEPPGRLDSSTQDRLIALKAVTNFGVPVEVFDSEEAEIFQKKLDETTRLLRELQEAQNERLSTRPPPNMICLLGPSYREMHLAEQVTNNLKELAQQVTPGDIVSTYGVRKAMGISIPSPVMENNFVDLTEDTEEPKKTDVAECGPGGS

FALZ = biological target: T6, FALZ (Homo sapiens, UniProt Q12830); experiment: BromoScan profiling (DiscoverX); type: binding; conditions: read-out: Percent Control FALZ
T6 construct: purchased Eurofins DiscoverX (BROMOscan)

BRD4(1) = biological target: T7, BRD4(1) (Homo sapiens, UniProt O60885); experiment: BromoScan profiling (DiscoverX); type: binding; conditions: read-out: Percent Control BRD4(1)
T7 construct: BRD4(1); purchased Eurofins DiscoverX (BROMOscan)

BAZ2B = biological target: T8, BAZ2B (Homo sapiens, UniProt Q9UIF8); experiment: BromoScan profiling (DiscoverX); type: binding; conditions: read-out: Percent Control BAZ2B
T8 construct: purchased Eurofins DiscoverX (BROMOscan)

MB002 cells = experiment: ERCC spike-in RNAseq gene expression after 6 h treatment; type: cell-based; conditions: MB002, replicate values, Supplementary Fig 6c
Procedure: (§1) First, we examined global changes in gene expression induced by drug treatment.
(§2) External RNA consortium control RNAs (ERCC, Ambion) were added directly to Trizol, based on cell number prior to RNA extraction. RNA samples were treated with DNAse I (Invitrogen) prior to recovery. Samples were obtained in biological triplicate. Total RNA was subjected to ribosomal RNA depletion prior to library preparation using the Truseq Stranded Total Library Prep Kit (Illumina) and sequencing on a Nextseq-500 (paired end, 100 bp reads).
(§3) Sequences were aligned using HISAT2 (version 2.1.0)[77] in paired-end mode with default parameters to build version hg19 of the human genome to which the sequences of the ERCC synthetic spike-in RNAs (http://tools.invitrogen.com/downloads/ERCC92.fa) had been added. Per-gene expression was quantified using htseq-count[78] with parameters “-i gene_id --stranded=reverse -f bam -m,” and version 87 of the canonical GRCh37 gene list from RefSeq to which ERCC coordinates were added. TPM-normalized (Transcripts Per Million) expression was then computed for each gene and synthetic ERCC spike-in RNA. Per-gene exon length was calculated across all exons of all isoforms of each gene. The standard TPM-normalization strategy is: normterm = sum of (read count * read length/exon length) across all genes. TPM = read count * read length/exon length * 1e6/normterm. We used a loess regression to normalize the TPM values across all samples of the batch, using only the spike-in values to fit the loess by the “affy” R package[79] with function loess.normalize. This function allowed us to perform loess regression on a matrix of TPM values and used the ERCC subset of data for fitting the loess. The output from this was a matrix of normalized TPM values controlled by ERCC spike-ins.
(§4) We used the elbow method[81] to determine the k value in k-means cluster analysis.
(§5) Dependency analysis was performed using the 22Q4 release of the DepMap dataset, comprising seven medulloblastoma cell lines: UW228, DAOY, ONS76, D458, D425, D283MED, D341MED. Dependency was defined as a Chronos gene effect score of <−0.5, and gene lists were filtered for dependency in >2/7 medulloblastoma cell lines. […] PANTHER was used to define gene annotations, with unknown annotations assigned using individual assessment using the Genecards.org resource.

HDMB03 (HDMBO3) cells = experiment: as above; type: cell-based; conditions: HDMBO3, replicate values, Supplementary Fig 6c
Procedure: as §1, §2, §3, §4, §5

PCAF = biological target: T9, PCAF (Homo sapiens, UniProt Q92831); experiment: BromoScan profiling (DiscoverX); type: binding; conditions: read-out: Percent Control PCAF
T9 construct: purchased Eurofins DiscoverX (BROMOscan)
T9 sequence (Q92831 whole entry): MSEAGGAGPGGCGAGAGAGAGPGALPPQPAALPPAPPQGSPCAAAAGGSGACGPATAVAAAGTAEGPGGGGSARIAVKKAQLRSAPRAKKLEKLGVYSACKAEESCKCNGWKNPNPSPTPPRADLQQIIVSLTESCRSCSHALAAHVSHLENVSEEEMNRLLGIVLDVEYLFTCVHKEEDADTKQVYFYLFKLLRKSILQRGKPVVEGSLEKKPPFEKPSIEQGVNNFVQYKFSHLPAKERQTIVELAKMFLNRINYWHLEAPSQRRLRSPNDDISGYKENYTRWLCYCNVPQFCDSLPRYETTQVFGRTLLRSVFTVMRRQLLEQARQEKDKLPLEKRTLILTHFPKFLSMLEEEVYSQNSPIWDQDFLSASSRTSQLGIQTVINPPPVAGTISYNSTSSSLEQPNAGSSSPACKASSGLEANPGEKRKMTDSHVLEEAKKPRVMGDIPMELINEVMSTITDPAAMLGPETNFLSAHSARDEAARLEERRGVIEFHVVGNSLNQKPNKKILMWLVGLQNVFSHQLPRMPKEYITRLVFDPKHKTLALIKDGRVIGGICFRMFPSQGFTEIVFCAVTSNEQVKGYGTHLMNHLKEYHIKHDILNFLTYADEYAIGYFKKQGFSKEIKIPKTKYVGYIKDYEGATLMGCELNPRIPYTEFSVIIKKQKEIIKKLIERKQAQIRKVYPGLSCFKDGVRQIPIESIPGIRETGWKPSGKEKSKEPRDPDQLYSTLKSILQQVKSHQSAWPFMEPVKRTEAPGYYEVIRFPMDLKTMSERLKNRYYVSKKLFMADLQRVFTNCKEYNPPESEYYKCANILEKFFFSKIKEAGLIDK

SMARCA4 = biological target: T10, SMARCA4 (Homo sapiens, UniProt P51532); experiment: BromoScan profiling (DiscoverX); type: binding; conditions: read-out: Percent Control SMARCA4
T10 construct: purchased Eurofins DiscoverX (BROMOscan)
T10 sequence (P51532 whole entry): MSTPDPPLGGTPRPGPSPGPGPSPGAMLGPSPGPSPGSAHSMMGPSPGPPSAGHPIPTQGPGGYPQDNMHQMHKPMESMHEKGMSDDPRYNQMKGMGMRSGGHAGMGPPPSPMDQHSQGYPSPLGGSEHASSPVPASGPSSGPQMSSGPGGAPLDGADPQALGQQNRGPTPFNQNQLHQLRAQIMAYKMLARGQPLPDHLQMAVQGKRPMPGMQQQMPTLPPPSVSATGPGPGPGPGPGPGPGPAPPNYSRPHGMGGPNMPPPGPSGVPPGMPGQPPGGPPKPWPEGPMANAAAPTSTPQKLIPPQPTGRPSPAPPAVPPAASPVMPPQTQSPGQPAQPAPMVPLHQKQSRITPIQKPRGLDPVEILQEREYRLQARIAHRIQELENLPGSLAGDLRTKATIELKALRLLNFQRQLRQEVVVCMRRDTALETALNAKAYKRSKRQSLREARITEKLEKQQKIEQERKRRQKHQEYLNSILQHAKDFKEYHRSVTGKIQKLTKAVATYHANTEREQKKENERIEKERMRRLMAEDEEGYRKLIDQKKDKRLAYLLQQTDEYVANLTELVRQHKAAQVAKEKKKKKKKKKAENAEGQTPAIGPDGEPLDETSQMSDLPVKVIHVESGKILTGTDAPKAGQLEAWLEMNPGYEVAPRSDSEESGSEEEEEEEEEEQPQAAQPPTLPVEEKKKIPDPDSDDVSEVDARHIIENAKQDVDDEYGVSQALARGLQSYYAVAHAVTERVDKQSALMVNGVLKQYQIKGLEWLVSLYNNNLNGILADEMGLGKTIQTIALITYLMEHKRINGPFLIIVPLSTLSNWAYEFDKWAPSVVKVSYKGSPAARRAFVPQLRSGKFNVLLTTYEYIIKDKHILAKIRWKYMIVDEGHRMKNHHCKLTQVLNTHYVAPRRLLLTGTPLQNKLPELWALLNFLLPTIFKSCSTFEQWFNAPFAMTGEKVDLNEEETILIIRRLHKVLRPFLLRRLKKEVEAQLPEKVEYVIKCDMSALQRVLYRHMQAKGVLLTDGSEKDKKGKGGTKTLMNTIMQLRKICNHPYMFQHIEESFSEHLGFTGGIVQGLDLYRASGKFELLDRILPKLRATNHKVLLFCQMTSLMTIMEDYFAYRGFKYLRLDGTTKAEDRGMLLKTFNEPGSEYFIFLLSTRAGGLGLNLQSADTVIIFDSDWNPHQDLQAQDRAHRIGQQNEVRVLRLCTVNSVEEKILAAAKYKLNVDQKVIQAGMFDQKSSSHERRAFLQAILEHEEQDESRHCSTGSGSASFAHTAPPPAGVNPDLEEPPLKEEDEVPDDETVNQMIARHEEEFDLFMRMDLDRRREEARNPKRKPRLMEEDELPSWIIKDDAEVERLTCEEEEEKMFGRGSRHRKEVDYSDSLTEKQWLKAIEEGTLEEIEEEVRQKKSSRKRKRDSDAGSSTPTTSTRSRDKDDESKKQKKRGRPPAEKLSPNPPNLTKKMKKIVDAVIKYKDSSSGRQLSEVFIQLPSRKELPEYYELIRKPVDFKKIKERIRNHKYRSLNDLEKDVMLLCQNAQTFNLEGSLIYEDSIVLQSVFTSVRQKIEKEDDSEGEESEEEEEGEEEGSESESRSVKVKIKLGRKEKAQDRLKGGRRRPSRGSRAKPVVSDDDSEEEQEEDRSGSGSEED

BRPF3 = biological target: T11, BRPF3 (Homo sapiens, UniProt Q9ULD4); experiment: BromoScan profiling (DiscoverX); type: binding; conditions: read-out: Percent Control BRPF3
T11 construct: purchased Eurofins DiscoverX (BROMOscan)
T11 sequence (Q9ULD4 whole entry): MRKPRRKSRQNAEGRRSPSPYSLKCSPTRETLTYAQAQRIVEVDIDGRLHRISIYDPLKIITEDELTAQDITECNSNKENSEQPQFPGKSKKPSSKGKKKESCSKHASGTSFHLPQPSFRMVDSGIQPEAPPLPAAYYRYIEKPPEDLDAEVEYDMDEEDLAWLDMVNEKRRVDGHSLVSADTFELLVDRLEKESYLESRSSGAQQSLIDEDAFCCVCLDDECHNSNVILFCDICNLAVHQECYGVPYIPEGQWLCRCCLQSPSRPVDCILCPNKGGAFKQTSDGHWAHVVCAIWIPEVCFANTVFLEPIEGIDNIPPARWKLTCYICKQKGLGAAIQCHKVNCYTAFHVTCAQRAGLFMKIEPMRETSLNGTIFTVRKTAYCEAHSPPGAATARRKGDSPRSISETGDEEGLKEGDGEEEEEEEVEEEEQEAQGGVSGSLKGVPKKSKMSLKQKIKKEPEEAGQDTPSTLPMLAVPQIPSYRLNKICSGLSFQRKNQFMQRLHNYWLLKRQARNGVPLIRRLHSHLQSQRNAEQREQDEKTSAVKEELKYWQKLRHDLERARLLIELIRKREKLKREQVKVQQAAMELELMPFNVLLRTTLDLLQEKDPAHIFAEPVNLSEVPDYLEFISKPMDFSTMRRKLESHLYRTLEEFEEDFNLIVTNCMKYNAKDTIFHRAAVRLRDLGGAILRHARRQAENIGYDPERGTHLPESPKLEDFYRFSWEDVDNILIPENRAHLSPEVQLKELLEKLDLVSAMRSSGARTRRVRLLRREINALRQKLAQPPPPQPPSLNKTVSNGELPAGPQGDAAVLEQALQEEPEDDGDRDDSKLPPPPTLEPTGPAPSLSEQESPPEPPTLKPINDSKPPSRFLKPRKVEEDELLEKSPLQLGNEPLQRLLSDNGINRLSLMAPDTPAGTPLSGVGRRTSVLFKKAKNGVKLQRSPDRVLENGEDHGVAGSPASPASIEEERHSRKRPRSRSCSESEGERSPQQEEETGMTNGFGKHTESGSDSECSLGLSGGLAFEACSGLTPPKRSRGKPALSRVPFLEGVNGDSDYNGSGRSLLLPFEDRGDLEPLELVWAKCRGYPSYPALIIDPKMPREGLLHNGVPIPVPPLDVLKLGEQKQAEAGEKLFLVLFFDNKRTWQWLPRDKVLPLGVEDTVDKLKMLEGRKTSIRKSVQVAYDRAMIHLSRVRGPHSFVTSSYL

[3] = HD-MB03, 72 h, day 3, read-out: d3 IC50 HDMBO3

remaining binding at 1 µM (BRDT(2)): 76% | remaining binding at 1 µM (BRD9): 39% | IC50 [1, 3]: 39 nM | IC50 ([1]; HD-MB03, HDMBO3 G3MB cell growth, read-out: IC50 (nM) HDMBO3): 82 ± 32 nM | IC50 [2]: 1280 nM | remaining binding at 1 µM (PBRM1(5)): 71% | remaining binding at 1 µM (BRD3(2)): 66% | remaining binding at 1 µM (BRD7): 64% | remaining binding at 1 µM (FALZ): 63% | remaining binding at 1 µM (BRD4(1)): 3.3% | remaining binding at 1 µM (BAZ2B): 82% | remaining binding at 1 µM (PCAF): 88% | remaining binding at 1 µM (SMARCA4): 61% | remaining binding at 1 µM (BRPF3): 75%
SMILES: CO[C@H]1CC[C@H](n2c([C@@H]3CCCC(=O)N3c3ccc(F)c(F)c3)nc3cc(-c4c(C)noc4C)ccc32)CC1 [CCS1477]
normalized growth (fraction of control), replicate values ([1]; M = -4.7): 0.042 and 0.025 and 0.028 and 0.036 and 0.035 and 0.041 and 0.053 (2×) and 0.048 and 0.054 and 0.043 and 0.052 | normalized growth (fraction of control), replicate values ([1]; M = -5.21): 0.044 and 0.033 (2×) and 0.034 and 0.036 and 0.027 and 0.037 and 0.05 and 0.032 and 0.029 and 0.031 and 0.04 | normalized growth (fraction of control), replicate values ([1]; M = -5.73): 0.036 and 0.028 and 0.032 and 0.05 and 0.027 | normalized growth (fraction of control), replicate values ([1]; M = -6.25): 0.073 and 0.039 (2×) and 0.064 (2×) and 0.053 and 0.055 and 0.069 and 0.061 and 0.031 and 0.047 and 0.041 | normalized growth (fraction of control), replicate values ([1]; M = -6.76): 0.122 and 0.123 and 0.093 and 0.099 and 0.112 and 0.108 and 0.113 and 0.078 and 0.09 and 0.094 and 0.079 and 0.066 | normalized growth (fraction of control), replicate values ([1]; M = -7.28): 0.344 and 0.279 and 0.281 and 0.294 and 0.307 and 0.364 and 0.263 and 0.244 and 0.257 and 0.231 and 0.199 and 0.251 | normalized growth (fraction of control), replicate values ([1]; M = -7.79): 0.653 and 0.647 and 0.598 and 0.634 and 0.582 and 0.697 and 0.7 and 0.556 and 0.819 and 0.469 and 0.726 and 0.588 | normalized growth (fraction of control), replicate values ([1]; M = -8.31): 0.976 and 1.03 and 0.907 and 0.959 and 0.846 and 0.924 and 0.949 and 0.892 and 1.092 and 1.013 and 0.868 | normalized growth (fraction of control), replicate values ([1]; M = -8.82): 1.054 and 0.933 and 1.006 and 0.821 and 1.079 and 1.062 and 1.187 and 0.91 and 1.023 (2×) and 0.934 and 0.969 | normalized growth (fraction of control), replicate values ([2]; M = -4.7): 0.021 and 0.012 (2×) and 0.014 and 0.011 (7×) and 0.01 (2×) and 0.007 (2×) and 0.009 (3×) | normalized growth (fraction of control), replicate values ([2]; M = -5.21): 0.053 and 0.051 and 0.056 (2×) and 0.055 and 0.067 (4×) and 0.062 and 0.069 and 0.07 and 0.077 and 0.073 and 0.064 and 0.08 and 0.074 and 0.061 | normalized growth (fraction of control), replicate values ([2]; M = -5.73): 0.176 and 0.2 and 0.173 (2×) and 0.221 and 0.192 and 0.209 and 0.163 and 0.174 and 0.198 and 0.167 and 0.182 and 0.161 and 0.164 and 0.153 and 0.149 and 0.147 and 0.172 | normalized growth (fraction of control), replicate values ([2]; M = -6.25): 0.427 and 0.39 and 0.435 and 0.48 and 0.521 and 0.536 and 0.339 and 0.326 and 0.323 and 0.364 and 0.327 and 0.314 and 0.325 and 0.273 (2×) and 0.287 (2×) and 0.391 | normalized growth (fraction of control), replicate values ([2]; M = -6.76): 0.571 and 0.619 and 0.593 and 0.57 (2×) and 0.624 and 0.745 and 0.543 and 0.601 and 0.505 and 0.54 and 0.511 and 0.346 and 0.471 and 0.506 and 0.447 and 0.463 and 0.363 | normalized growth (fraction of control), replicate values ([2]; M = -7.28): 0.767 and 0.779 and 0.746 and 0.805 and 0.733 and 1.069 and 0.749 and 0.742 and 0.816 and 0.687 | Normalized MYC expression (MB002 cells): 0.3944 and 0.5851 and 0.5892 | Normalized MYC expression (HDMB03 (HDMBO3) cells): 0.5957 and 0.4799 and 0.4227

IC50 [1, 3]: 400 nM | IC50 [2]: 1970 nM
SMILES: CNC(=O)Nc1ccc2c(c1)CCC21OC(=O)N(CC(=O)N(Cc2ccc(F)cc2)C(C)C(F)(F)F)C1=O (centres unmarked) [Compound A485]
Normalized MYC expression (MB002 cells): 0.2801 and 0.5062 and 0.4843 | Normalized MYC expression (HDMB03 (HDMBO3) cells): 0.9151 and 0.6386 and 0.4867
